Here are results for three molecules from PubChem BioAssay (NCI).

Holding throughout (experiment): inhibition of tumour cell growth, NCI panel, 48 h
The subject of experiment [1] is SNB-75 CNS.
The test system of experiment [2] is EKVX NSCLC.
The subject of experiment [3] is NCI-H23 lung.
In experiment [4] the test system is OVCAR-4 ovarian.
Experiment [5] deals with K-562 leukemia.
Experiment [6] relates to SN12C renal.
Experiment [7] concerns KM12 colon.
For experiment [8], the system named is T-47D breast.
In experiment [9] the test system is SF-539 CNS.
The test system of experiment [10] is MALME-3M melanoma.

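Protocol summary: plate cells (96-well), add compound at 5 concentrations, incubate 48 h, interpolate endpoints linearly. Here, GI50 denotes the concentration required for 50% inhibition of growth. TGI: total growth inhibition.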

In the case of `COc1ccc(C(=O)c2cc(OC)c(OC)c(OC)c2)cc1OC(=O)CCl`, the GI50 in experiment [1] was 0.0257 µM; in [2], 0.832 µM; in experiment [3] it was 0.0653 µM; in experiment [4], 0.115 µM; in experiment [5] it was less than 0.0123 µM; in experiment [6], 0.0472 µM. The GI50 is less than 0.0143 µM in experiment [7], 3.03 µM in experiment [8] and less than 0.01 µM in experiment [9]. The TGI in [1], in experiment [2], in experiment [3], in [4], in experiment [5] and in experiment [6] was greater than 100 µM each time. The TGI in experiment [7] was greater than 100 µM; in experiment [8], 97.3 µM; in experiment [9] it was 0.0541 µM; in experiment [10], greater than 100 µM.
Turning to `CC(C)[C@H](N)C(=O)N1CCC[C@H]1B(O)O`, the GI50 in experiment [1], in [2], in experiment [3], in experiment [4], in [5] and in experiment [6] was greater than 100 µM each time. Moreover, the GI50 in [7], in [8], in experiment [9] and in [10] was greater than 100 µM each time. The TGI in experiment [1], in [2], in experiment [3], in experiment [4], in [5] and in experiment [6] was greater than 100 µM throughout. Also, the TGI in [7], in experiment [8], in [9] and in [10] was greater than 100 µM in each case.
With `C=C1C(=O)O[C@H]2[C@H]1CC/C(COC(=O)NCc1ccc(Cn3c(=O)sn(CCCl)c3=O)cc1)=C\CC[C@@]1(C)O[C@@H]21`, the GI50 in [1] was 7.65 µM; in [2] it was 1.99 µM; in experiment [3] it was 2.18 µM; in [4] it was 1.92 µM; in [5], 2.07 µM; in experiment [6] it was 2.01 µM. The GI50 was 13.4 µM in experiment [7], 1.97 µM in [8], 1.82 µM in experiment [9] and 1.72 µM in experiment [10]. Further, the TGI came out at 21 µM in [1]; 5.25 µM in experiment [2]; 5.2 µM in experiment [3]; 4.01 µM in [4]; 5.63 µM in [5]; 4.28 µM in experiment [6]. Further, the TGI is 27.7 µM in experiment [7], 5.16 µM in experiment [8], 3.26 µM in [9] and 3.46 µM in [10].
